BindingDB's records for doi:10.1016/j.bmc.2005.09.061 (Fujisawa Pharmaceutical, 2006)

Experiments:
[1] = biological target: Poly [ADP-ribose] polymerase 2 (Mus musculus, UniProt O88554); experiment: PARP Enzyme Inhibition Assay; details: 25 °C
Description: (§1) To assess the inhibitory activity of novel inhibitors, the PARP enzyme assay was carried out in reaction mixture consisting of activated salmon testes DNA, [adenylate-32P]-NAD, recombinant PARP enzyme, and various concentrations of PARP inhibitors. The reaction mixture was incubated at room temperature for 15 min, and the reaction was terminated by adding trichloroacetic acid. The precipitate was transferred onto GF/B filter. After the filter was washed and dried, the radioactivity was determined by liquid scintillation counting. IC50 values were calculated from the concentration dependence of the inhibition curves by using computer-assisted non-linear regression analyses.

[2] = biological target: Poly [ADP-ribose] polymerase 1 (Homo sapiens, UniProt P09874); experiment: PARP Enzyme Inhibition Assay; details: pH 8; 23 °C
Description: as §1

Poly [ADP-ribose] polymerase 2, sequence (O88554 whole entry): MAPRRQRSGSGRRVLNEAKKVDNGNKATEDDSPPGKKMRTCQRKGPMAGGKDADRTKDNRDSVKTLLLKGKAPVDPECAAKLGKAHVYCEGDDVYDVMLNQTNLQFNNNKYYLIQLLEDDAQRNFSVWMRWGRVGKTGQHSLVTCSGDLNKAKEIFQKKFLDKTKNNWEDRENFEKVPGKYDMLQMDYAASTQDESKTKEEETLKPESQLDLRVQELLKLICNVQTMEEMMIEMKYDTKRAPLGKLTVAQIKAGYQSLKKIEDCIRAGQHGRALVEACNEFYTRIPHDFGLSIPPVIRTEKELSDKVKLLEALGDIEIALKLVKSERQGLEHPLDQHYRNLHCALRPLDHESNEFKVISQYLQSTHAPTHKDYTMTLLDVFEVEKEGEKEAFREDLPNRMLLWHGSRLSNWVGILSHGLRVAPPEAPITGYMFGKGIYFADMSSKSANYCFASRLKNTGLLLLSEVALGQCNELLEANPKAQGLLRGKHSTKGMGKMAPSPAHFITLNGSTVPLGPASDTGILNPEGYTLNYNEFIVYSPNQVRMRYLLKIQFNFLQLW
Poly [ADP-ribose] polymerase 1, sequence (P09874 whole entry): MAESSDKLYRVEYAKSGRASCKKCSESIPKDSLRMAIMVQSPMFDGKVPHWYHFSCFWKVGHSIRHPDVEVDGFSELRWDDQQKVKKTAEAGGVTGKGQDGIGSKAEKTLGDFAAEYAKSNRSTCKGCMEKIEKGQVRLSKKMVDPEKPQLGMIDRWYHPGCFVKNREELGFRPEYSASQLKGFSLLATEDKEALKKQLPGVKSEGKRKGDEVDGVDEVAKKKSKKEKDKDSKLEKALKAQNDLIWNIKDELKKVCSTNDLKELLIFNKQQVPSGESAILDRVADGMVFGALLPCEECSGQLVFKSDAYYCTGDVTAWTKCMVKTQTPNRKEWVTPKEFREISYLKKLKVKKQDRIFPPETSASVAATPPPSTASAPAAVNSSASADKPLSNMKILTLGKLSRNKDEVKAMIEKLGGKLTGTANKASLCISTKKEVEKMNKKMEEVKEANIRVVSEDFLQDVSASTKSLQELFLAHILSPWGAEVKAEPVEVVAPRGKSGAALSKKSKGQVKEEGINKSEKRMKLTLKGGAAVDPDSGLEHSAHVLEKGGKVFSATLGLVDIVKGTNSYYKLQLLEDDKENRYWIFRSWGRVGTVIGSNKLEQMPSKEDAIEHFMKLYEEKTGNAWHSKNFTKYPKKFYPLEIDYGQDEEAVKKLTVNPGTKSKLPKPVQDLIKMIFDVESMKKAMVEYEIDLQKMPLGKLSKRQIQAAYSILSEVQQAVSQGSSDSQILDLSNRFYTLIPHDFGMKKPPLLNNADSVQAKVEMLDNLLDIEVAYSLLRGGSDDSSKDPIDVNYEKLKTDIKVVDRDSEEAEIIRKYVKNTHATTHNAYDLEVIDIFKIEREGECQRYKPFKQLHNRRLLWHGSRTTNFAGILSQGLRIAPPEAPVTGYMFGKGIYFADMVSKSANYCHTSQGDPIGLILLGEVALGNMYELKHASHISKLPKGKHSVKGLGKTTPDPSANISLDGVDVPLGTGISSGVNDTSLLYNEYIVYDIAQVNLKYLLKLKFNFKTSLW

| SMILES | IC50 [1] [nM] | IC50 [2] [nM] |
| --- | --- | --- |
| NC(=O)c1cccc(N)c1 | 9810 | – |
| NC(=O)c1cccc2ncc(-c3ccc(N)cc3)nc12 [3-(4-aminophenyl)quinoxaline-5-carboxamide] | 9 | 87 |
| O=c1[nH]c(CCCN2CC=C(c3ccccc3)CC2)nc2cccc(Cl)c12 [5-Chloro-2-[3-(4-phenyl-3,6-dihydro-2H-pyridin-1-yl)-propyl]-3H-quinazolin-4-one] | 630 | 68 |
| NC(=O)c1cccc2ncc(-c3ccccc3)nc12 [3-phenylquinoxaline-5-carboxamide] | 14 | 131 |
| NC(=O)c1cccc2ncc(-c3ccc(C(F)(F)F)cc3)nc12 | 11 | 118 |
| O=c1[nH]c(CCCN2CC=C(c3ccc(F)cc3)CC2)nc2c(Cl)cccc12 [8-chloro-2-{3-[4-(4-fluorophenyl)-1,2,3,6-tetrahydropyridin-1-yl]propyl}-3,4-dihydroquinazolin-4-one] | 500 | – |
| O=c1[nH]c(CCCN2CC=C(c3ccccc3)CC2)nc2ccccc12 [2-[3-(4-phenyl-1,2,3,6-tetrahydropyridin-1-yl)propyl]-3,4-dihydroquinazolin-4-one] | 608 | 21 |
| O=c1[nH]nc(CCCCN2CC=C(c3ccc(F)cc3)CC2)c2ccccc12 [4-{4-[4-(4-fluorophenyl)-1,2,3,6-tetrahydropyridin-1-yl]butyl}-1,2-dihydrophthalazin-1-one] | 84 | 49 |
| NC(=O)c1cccc2ncc(-c3ccc(Cl)cc3)nc12 [3-(4-chlorophenyl)quinoxaline-5-carboxamide] | 7 | 33 |
| O=c1[nH]c2ccc(CCCN3CC=C(c4ccccc4)CC3)cc2c2ccccc12 | 84 | 82 |
| N#Cc1ccc(-c2cnc3cccc(C(N)=O)c3n2)cc1 | 8 | 101 |
| COc1ccc(-c2cnc3cccc(C(N)=O)c3n2)cc1 | 8 | 71 |
| O=c1[nH]c(CCCN2CCN(c3ccc(Cl)cc3)CC2)nc2ccccc12 [2-{3-[4-(4-chlorophenyl)piperazin-1-yl]propyl}-3,4-dihydroquinazolin-4-one] | 300 | 11 |
| O=c1[nH]c(CCCN2CC=C(c3ccccc3)CC2)nc2c(Cl)cccc12 | 610 | 23 |
| O=c1[nH]c(=O)n(CCCCN2CC=C(c3ccccc3)CC2)c2ccccc12 [1-[4-(4-phenyl-1,2,3,6-tetrahydropyridin-1-yl)butyl]-1,2,3,4-tetrahydroquinazoline-2,4-dione] | 70 | 120 |
| Cc1nc2cccc(Cl)c2c(=O)[nH]1 [5-chloro-2-methyl-3,4-dihydroquinazolin-4-one] | 660 | – |
| O=c1[nH]c(=O)n(CCCCC2CC=C(c3ccccc3)CC2)c2cccc(F)c12 (stereo unspecified) [5-fluoro-1-[4-(4-phenylcyclohex-3-en-1-yl)butyl]-1,2,3,4-tetrahydroquinazoline-2,4-dione] | – | > 1000 |
| N#Cc1ccc(C2=CCN(CCCc3nc4c(Cl)cccc4c(=O)[nH]3)CC2)cc1 | 87 | 3 |
| O=c1[nH]nc(CCCCN2CC=C(c3ccccc3)CC2)c2ccccc12 [4-[4-(4-Phenyl-3,6-dihydro-2H-pyridin-1-yl)-butyl]-2H-phthalazin-1-one] | 90 | 120 |
| Cc1cccc2c(=O)[nH]c(CCCN3CC=C(c4ccc(F)cc4)CC3)nc12 | 167 | 16 |
